Reference: patent US20230114728A1 (Venatorx Pharmaceuticals, Inc., priority 2019, published 2023)
≈ marks a conversion by molar mass, not a printed value.

Columns and labels:
[1] = Bocillin-FL fluorescence polarization competition binding assay, A. baumannii PBP3; conditions: fluorescence polarization competition binding assay using Bocillin-FL; column 3; read-out: 4. baumannii PBP1a Potency
In short: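 Fluorescence polarization (ex 490/em 520 nm) competition of inhibitors against Bocillin-FL at 0.1 μM, read up to 60 min. Final PBP levels: E. coli PBP3 1.5 μM; A. baumannii PBP2 2.5 μM, PBP3 0.2 μM in Tris pH 8.0/NaCl/glycerol/Tween 20; N. gonorrhoeae PBP2 […] in Hepes pH 8.0/NaCl/glycerol. EC50 = concentration halving PBP-bound Bocillin-FL.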

N. gonorrhoeae WHO Z = test: Liquid broth MIC in Fastidious broth; assay type: cell-based; conditions: Neisseria gonorrhoeae, read-out: Minimum Inhibitory Concentration, N. gonorrhoeae WHO Z
In short: (§1)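 Mosaic-PBP2 strains grown 24 h on chocolate agar (36 °C, 5% CO2), then direct-suspended in saline and OD600-adjusted. Twofold compound dilutions in Fastidious broth inoculated at 5×10^5 CFU/mL and incubated ~24 h at 36 °C, 5% CO2. MIC read visually as lowest concentration with <10% growth versus full-growth wells.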

N. gonorrhoeae WHO Q = test: Liquid broth MIC in Fastidious broth; assay type: cell-based; conditions: Neisseria gonorrhoeae, read-out: Minimum Inhibitory Concentration, N. gonorrhoeae WHO Q
In short: as §1

Row | Structure (SMILES) | EC50 [1] [µM] | MIC (N. gonorrhoeae WHO Z) [µg/mL] | MIC (N. gonorrhoeae WHO Q) [µg/mL]
1 | NCCN1CCN(C(=O)N[C@@H](C(=O)N[C@H]2Cc3ccc(F)c(C(=O)O)c3OB2O)c2c(F)cc(O)c(O)c2Cl)C(=O)C1=O (single isomer, unassigned) [Example 26] | 30 to 100 | – | –
2 | NCCCN1CCN(C(=O)N[C@@H](C(=O)N[C@H]2Cc3ccc(F)c(C(=O)O)c3OB2O)c2c(F)cc(O)c(O)c2Cl)C(=O)C1=O (single isomer, unassigned) [Example 27] | 30 to 100 | – | –
3 | O=C(O)c1c(F)ccc2c1OB(O)[C@@H](NC(=O)[C@H](NC(=O)N1CCNC1=O)c1c(F)cc(O)c(O)c1Cl)C2 (single isomer, unassigned) [Example 34] | > 100 | – | –
4 | CS(=O)(=O)N1CCN(C(=O)N[C@@H](C(=O)N[C@H]2Cc3ccc(F)c(C(=O)O)c3OB2O)c2c(F)cc(O)c(O)c2Cl)C1=O (single isomer, unassigned) [Example 35] | 30 to 100 | – | –
5 | NCCN1CCN(C(=O)N[C@@H](C(=O)N[C@H]2Cc3ccc(F)c(C(=O)O)c3OB2O)c2c(F)cc(O)c(O)c2F)C(=O)C1=O (single isomer, unassigned) [Example 40] | > 100 | – | –
6 | NCCCN1CCN(C(=O)N[C@@H](C(=O)N[C@H]2Cc3ccc(F)c(C(=O)O)c3OB2O)c2c(F)cc(O)c(O)c2F)C(=O)C1=O (single isomer, unassigned) [Example 41] | 30 to 100 | – | –
7 | O=C(O)c1ccc(C(NC(=O)c2ccc(O)c(O)c2Cl)C(=O)N[C@H]2Cc3cccc(C(=O)O)c3OB2O)cc1F (stereo partly drawn) [Example 7, (3R)-3-(2-(4-carboxy-3-fluorophenyl)-2-(2-chloro-3,4-dihydroxybenzamido)acetamido)-2-hydroxy-3,4-dihydro-2H-benzo[e][1,2]oxaborinine-8-carboxylic acid] | > 100 | – | –
8 | O=C(NC(C(=O)N[C@H]1Cc2ccc(F)c(C(=O)O)c2OB1O)c1ncc(O)cc1F)c1ccc(O)c(O)c1Cl (stereo partly drawn) [Example 8, (3R)-3-(2-(2-chloro-3,4-dihydroxybenzamido)-2-(3-fluoro-5-hydroxypyridin-2-yl)acetamido)-7-fluoro-2-hydroxy-3,4-dihydro-2H-benzo[e][1,2]oxaborinine-8-carboxylic acid] | > 100 | – | –
9 | O=C(Nc1ccc(O)c(O)c1Cl)NC(C(=O)N[C@H]1Cc2ccc(F)c(C(=O)O)c2OB1O)c1ncc(O)cc1F (stereo partly drawn) [Example 9, (3R)-3-(2-(3-(2-chloro-3,4-dihydroxyphenyl)ureido)-2-(3-fluoro-5-hydroxypyridin-2-yl)acetamido)-7-fluoro-2-hydroxy-3,4-dihydro-2H-benzo[e][1,2]oxaborinine-8-carboxylic acid] | 30 to 100 | – | –
10 | O=C(O)c1ccc(C(NC(=O)N2CCN(CCNC(=O)c3ccc(O)c(O)c3Cl)C(=O)C2=O)C(=O)N[C@H]2Cc3ccc(F)c(C(=O)O)c3OB2O)cc1F (stereo partly drawn) [Example 11, (3R)-3-(2-(4-carboxy-3-fluorophenyl)-2-(4-(2-(2-chloro-3,4-dihydroxybenzamido)ethyl)-2,3-dioxopiperazine-1-carboxamido)acetamido)-7-fluoro-2-hydroxy-3,4-dihydro-2H-benzo[e][1,2]oxaborinine-8-carboxylic acid] | 10 to 30 | 16 to 32 (≈ 20.7 to 41.4 µM) | –
11 | CCN1CCN(C(=O)NC(C(=O)N[C@H]2Cc3ccc(F)c(C(=O)O)c3OB2O)c2ccc(C(=O)O)cc2)C(=O)C1=O (stereo partly drawn) [Example 15, (3R)-3-(2-(4-carboxyphenyl)-2-(4-ethyl-2,3-dioxopiperazine-1-carboxamido)acetamido)-7-fluoro-2-hydroxy-3,4-dihydro-2H-benzo[e][1,2]oxaborinine-8-carboxylic acid] | > 100 | 1 to 2 (≈ 1.75 to 3.51 µM) | –
12 | CS(=O)(=O)N1CCN(C(=O)NC(C(=O)N[C@H]2Cc3ccc(F)c(C(=O)O)c3OB2O)c2ccc(O)c(O)c2Cl)C1=O (stereo partly drawn) [Example 23, (3R)-3-(2-(2-chloro-3,4-dihydroxyphenyl)-2-(3-(methylsulfonyl)-2-oxoimidazolidine-1-carboxamido)acetamido)-7-fluoro-2-hydroxy-3,4-dihydro-2H-benzo[e][1,2]oxaborinine-8-carboxylic acid] | 30 to 100 | – | –
13 | NC(C(=O)N[C@H]1Cc2ccc(F)c(C(=O)O)c2OB1O)c1c(F)cc(O)c(O)c1Cl (stereo partly drawn) [Example 25, (3R)-3-(2-amino-2-(2-chloro-6-fluoro-3,4-dihydroxyphenyl)acetamido)-7-fluoro-2-hydroxy-3,4-dihydro-2H-benzo[e][1,2]oxaborinine-8-carboxylic acid] | > 100 | – | –
14 | CCN1CCN(C(=O)NC(C(=O)N[C@H]2Cc3ccc(F)c(C(=O)O)c3OB2O)c2c(F)cc(O)c(O)c2F)C(=O)C1=O (stereo partly drawn) [Example 36, (3R)-3-(2-(2,6-difluoro-3,4-dihydroxyphenyl)-2-(4-ethyl-2,3-dioxopiperazine-1-carboxamido)acetamido)-7-fluoro-2-hydroxy-3,4-dihydro-2H-benzo[e][1,2]oxaborinine-8-carboxylic acid] | 10 to 30 | – | –
15 | O=C(O)c1c(F)ccc2c1OB(O)[C@@H](NC(=O)C(NC(=O)N1CCN(CCF)C(=O)C1=O)c1c(F)cc(O)c(O)c1F)C2 (stereo partly drawn) [Example 37, (3R)-3-(2-(2,6-difluoro-3,4-dihydroxyphenyl)-2-(4-(2-fluoroethyl)-2,3-dioxopiperazine-1-carboxamido)acetamido)-7-fluoro-2-hydroxy-3,4-dihydro-2H-benzo[e][1,2]oxaborinine-8-carboxylic acid] | 30 to 100 | – | –
16 | O=C(O)c1c(F)ccc2c1OB(O)[C@@H](NC(=O)C(NC(=O)N1CCN(CCBr)C(=O)C1=O)c1c(F)cc(O)c(O)c1F)C2 (stereo partly drawn) [Example 38, (3R)-3-(2-(4-(2-bromoethyl)-2,3-dioxopiperazine-1-carboxamido)-2-(2,6-difluoro-3,4-dihydroxyphenyl)acetamido)-7-fluoro-2-hydroxy-3,4-dihydro-2H-benzo[e][1,2]oxaborinine-8-carboxylic acid] | 10 to 30 | – | –
17 | NCCCN1CCN(C(=O)NC(C(=O)N[C@H]2Cc3cccc(C(=O)O)c3OB2O)c2ccc(C(=O)O)cc2)C(=O)C1=O (stereo partly drawn) [Example 39, (3R)-3-(2-(4-(3-aminopropyl)-2,3-dioxopiperazine-1-carboxamido)-2-(4-carboxyphenyl)acetamido)-2-hydroxy-3,4-dihydro-2H-benzo[e][1,2]oxaborinine-8-carboxylic acid] | 30 to 100 | – | –
18 | CCN1CCN(C(=O)NC(C(=O)N[C@H]2Cc3ccc(F)c(C(=O)O)c3OB2O)c2cc(F)c(O)c(O)c2Cl)C(=O)C1=O (stereo partly drawn) [Example 42, (3R)-3-(2-(2-chloro-5-fluoro-3,4-dihydroxyphenyl)-2-(4-ethyl-2,3-dioxopiperazine-1-carboxamido)acetamido)-7-fluoro-2-hydroxy-3,4-dihydro-2H-benzo[e][1,2]oxaborinine-8-carboxylic acid] | 30 to 100 | – | –
19 | NCCN1CCN(C(=O)NC(C(=O)N[C@H]2Cc3cccc(C(=O)O)c3OB2O)c2c(F)cc(O)cc2Cl)C(=O)C1=O (stereo partly drawn) [Example 94, (3R)-3-(2-(4-(2-aminoethyl)-2,3-dioxopiperazine-1-carboxamido)-2-(2-chloro-6-fluoro-4-hydroxyphenyl)acetamido)-2-hydroxy-3,4-dihydro-2H-benzo[e][1,2]oxaborinine-8-carboxylic acid] | – | > 64 | > 64
20 | CCN1CCN(C(=O)NC(C(=O)N[C@H]2Cc3cccc(C(=O)O)c3OB2O)c2c(F)cc(O)cc2Cl)C(=O)C1=O (stereo partly drawn) [Example 95, (3R)-3-(2-(2-chloro-6-fluoro-4-hydroxyphenyl)-2-(4-ethyl-2,3-dioxopiperazine-1-carboxamido)acetamido)-2-hydroxy-3,4-dihydro-2H-benzo[e][1,2]oxaborinine-8-carboxylic acid] | – | 16 to 32 (≈ 27.7 to 55.5 µM) | 16 to 32 (≈ 27.7 to 55.5 µM)
21 | CCN1CCN(C(=O)NC(C(=O)N[C@H]2Cc3cccc(C(=O)O)c3OB2O)c2cccc(NC(=O)c3cncnc3)c2)C(=O)C1=O (stereo partly drawn) [Example 96, (3R)-3-(2-(4-ethyl-2,3-dioxopiperazine-1-carboxamido)-2-(3-(pyrimidine-5-carboxamido)phenyl)acetamido)-2-hydroxy-3,4-dihydro-2H-benzo[e][1,2]oxaborinine-8-carboxylic acid] | – | > 64 | > 64
22 | CCN1CCN(C(=O)NC(C(=O)N[C@H]2Cc3cccc(C(=O)O)c3OB2O)c2cccc(NC(=O)c3cccnc3)c2)C(=O)C1=O (stereo partly drawn) [Example 97, (3R)-3-(2-(4-ethyl-2,3-dioxopiperazine-1-carboxamido)-2-(3-(nicotinamido)phenyl)acetamido)-2-hydroxy-3,4-dihydro-2H-benzo[e][1,2]oxaborinine-8-carboxylic acid] | – | > 64 | > 64
23 | CCN1CCN(C(=O)NC(C(=O)N[C@H]2Cc3cccc(C(=O)O)c3OB2O)c2cccc(NS(N)(=O)=O)c2)C(=O)C1=O (stereo partly drawn) [Example 98, (3R)-3-(2-(4-ethyl-2,3-dioxopiperazine-1-carboxamido)-2-(3-(sulfamoylamino)phenyl)acetamido)-2-hydroxy-3,4-dihydro-2H-benzo[e][1,2]oxaborinine-8-carboxylic acid] | – | 16 to 32 (≈ 26.6 to 53.1 µM) | 16 to 32 (≈ 26.6 to 53.1 µM)
24 | CCN1CCN(C(=O)NC(C(=O)N[C@H]2Cc3cccc(C(=O)O)c3OB2O)c2cccc(S(N)(=O)=O)c2)C(=O)C1=O (stereo partly drawn) [Example 99, (3R)-3-(2-(4-ethyl-2,3-dioxopiperazine-1-carboxamido)-2-(3-sulfamoylphenyl)acetamido)-2-hydroxy-3,4-dihydro-2H-benzo[e][1,2]oxaborinine-8-carboxylic acid] | – | 16 to 32 (≈ 27.2 to 54.5 µM) | 16 to 32 (≈ 27.2 to 54.5 µM)
